Results taken from patent US11352382B2, “Mito-lonidamine, compositions and methods of use” (THE MEDICAL COLLEGE OF WISCONSIN, INC., priority 2018, dated 2022).
“Also recorded” adds a separate entry of the source.

Legend:
[1] = test system: mitochondrial complexes I and II; experiment: Inhibition of mitochondrial complexes I and II, stated jointly; type: cell-based, human; conditions: for fold potency compared with LON/LDN, complexes I and II: H2030BrM3 lung cancer cells
From the text: LON and Mito-LON inhibit mitochondrial complex I activity. Mito-LON inhibited cellular respiration (oxygen consumption rate, OCR) at >100-fold lower concentration than LON in intact lung cancer cells (FIG. 9). Both basal respiration and the response to mitochondrial stressors (oligomycin, dinitrophenol) were diminished by Mito-LON (not shown). To investigate the mechanism of mitochondrial inhibition, we measured the activity of mitochondrial complexes in H2030BrM3 cells (NSCLC cell line). The cell membrane was permeabilized, and OCR was measured upon addition of substrates and inhibitors of mitochondrial complexes I-IV (FIG. 9A). These studies established the optimal use of permeabilized cells for complex activity assays.^54 Next, cells were pretreated with LON and Mito-LON for 24 h and experiments performed as in FIG. 9A. […] We hypothesize that inhibition of mitochondrial complexes I and II is the predominant mechanism for antiproliferative effects of Mito-LON on lung cancer cells.

H2030BrM3 cells = experiment: Cellular ROS production, HPLC-based analysis of hydroethidine (HE) oxidation; type: cell-based, human; conditions: for ROS generation in lung cancer cells: concentration not given
From the text: (§1) Inhibition of mitochondrial respiration results in increased O2^⋅− and other oxidants.

mitochondrial Prx3 = experiment: Redox status of mitochondrial peroxiredoxin; type: cell-based, human; conditions: lung cancer cells
From the text: as §1

[2] = test system: H2030, PC9, H460, H2030BrM3, PC9BrM3 cells; experiment: Cell viability of lung cancer and brain metastatic lines (Calcein-AM); type: cell-based, human
From the text: Mito-LON treatment causes cell death of human lung cancer and lung cancer-derived brain metastatic cell lines. Paradoxical roles for autophagy in cancer have been reported for the role of autophagy in cancer. Under conditions of nutrient deprivation autophagy induction can promote cell survival; however, in response to other environmental stressors including ROS generation, autophagy can promote cancer cell death. We treated lung cancer lines (H2030, PC9, H460) and lung cancer-derived brain metastatic lines (H2030BrM3, PC9BrM3) with Mito-LON (1.6, 2.0 or 2.4 μM) and measured cell viability at 24 and 48 h.

[3] = test system: H2030 and H2030BrM3 cells; experiment: Apoptosis markers in treated cells; type: cell-based, human
From the text: Mito-LON's effects on inducing apoptosis in human lung cancer cell lines and their lung-derived brain metastatic lines. Results from Mito-LON-treated H2030 and H2030BrM3 cells (FIG. 20) supports cell death induction is mainly via autophagy rather than caspase-dependent apoptosis.

[4] = test system: VC-induced lung tumors in A/J mice; experiment: Vinyl carbamate (VC)-induced lung carcinogenesis, post-initiation protocol; type: in vivo, mouse
From the text: Preventive efficacy of Mito-LON on vinyl carbamate (VC)-Induced lung carcinogenesis using a post-initiation protocol. We evaluated the preventive efficacy of Mito-LON on the development of VC-induced lung tumors in A/J mice. A post-initiation protocol was used in this study by which administration of Mito-LON was initiated one week after VC. Mito-LON was given via oral gavage at a dose of 15 μmol/kg 5 days/week for 20 weeks.

[5] = test system: luciferase-expressing H2030BrM3 cells in Nod/Scid mice; experiment: Lung cancer brain metastasis model, intra-cardiac injection, bioluminescence; type: in vivo, mouse; conditions: 7.5 μmol/kg oral gavage
Protocol: Mito-LON inhibits lung cancer brain metastasis in Nod/Scid mice. Preliminary experiments assessed the effect of Mito-LON, and its enhanced potency vs. LON, on brain metastasis in Nod/Scid mice in which luciferase-expressing H2030BrM3 cells were injected via intra-cardiac insertion. To ensure the accuracy of injection and precision in the quantity of the cells injected, we used high-resolution echocardiography to guide the needle into the left ventricle. In FIG. 25A, the needle's positioning is clearly discernable. Mice were imaged for firefly luciferase expression (150 μg/g D-luciferin) using an IVIS 100 imaging system at multiple time points post-injection. Regions of interest were defined manually over the brain, and LivingImage and Igor image analysis software were used to determine total photon flux. One day after engrafting the H2030BrM3 cells in arterial circulation (FIG. 19A), LON or Mito-LON (7.5 μmol/kg each) were administered by oral gavage, tumor growth was monitored by bioluminescence, and ex vivo GFP expression and H&E staining were determined at the end point. H2030BrM3 cells rapidly colonized in the cerebrum and cerebellum (FIG. 25B).

For `O=C(NCCCCCCCCCC[P+](c1ccccc1)(c1ccccc1)c1ccccc1)c1nn(Cc2ccc(Cl)cc2Cl)c2ccccc12` [Mito-LON, Mito10-lonidamine], the “concentration that targets mitochondrial complexes I and II” value ([1]; FIG. 9) was 1.2 to 2.7 µM, the “fold potency compared with LON/LDN, complexes I and II” value ([1]; FIG. 9) was “over 100 fold” and the “fold potency compared with LON/LDN, complexes I and II” value ([1]; FIG. 9, listed as Mito-LDN) was “greater than 100 fold”. The IC50 ([1]; read-out: IC50, inhibition of complex I and II, pretreatment of H2030BrM3 cells) was ~2000 nM, the “intracellular levels of 2-OH-E+ (superoxide-specific product of HE oxidation)” value (H2030BrM3 cells; 0.2 μM, H2030BrM3 cells) was “increase” and the “formation of diethidium (E+-E+)” value (H2030BrM3 cells; H2030BrM3 cells) was “strongly induced”. The “ROS generation in lung cancer cells” value (H2030BrM3 cells) was “stimulates ROS generation; also recorded: induced ROS generation in mitochondria; also recorded: enhanced the formation of 2-hydroxyethidium; also recorded: increased ROS generation”, the “ROS generation in lung cancer cells” value (H2030BrM3 cells; listed as Mito-LDN) was “stimulates ROS generation” and the “oxidation of mitochondrial Prx3” value (mitochondrial Prx3) was “oxidizes mitochondrial Prx3; also recorded: pronounced oxidation”. The “oxidation of mitochondrial Prx3” value (mitochondrial Prx3; listed as Mito-LDN) was “oxidizes mitochondrial Prx3”, the cytotoxicity at 2 µM ([2]; Homo sapiens, NCI-H2030, H2030 cells, 2.0 μM, 48 h, Calcein-AM, read-out: reduction of cell viability) was ~50% and the “LD50, cell viability” value ([2]; lung cancer and brain metastatic lines, 24 and 48 h) was 2.0 µM. The caspase cleavage [3] was “did not induce caspase cleavage”, the “cleaved PARP and cytochrome c levels” value [3] was “increased levels of cleaved PARP and cytochrome c” and the “inhibition of VC-induced lung tumor development, total tumor load” value ([4]; 15 μmol/kg oral gavage 5 days/week for 20 weeks, A/J mice) was 62%. For the same compound, the body weight changes ([4]; 15 μmol/kg oral gavage, 20 weeks) was “did not observe any body weight changes” and the “inhibition of brain metastasis of lung cancer cells” value [5] was “significant efficacy in inhibiting brain metastasis”.
